ChEMBL document CHEMBL1135273, “5-Phosphonomethylquinoxalinediones as competitive NMDA receptor antagonists with a preference for the human 1A/2A, rather than 1A/2B receptor composition” (Bioorg Med Chem Lett, 2002)
The source made the active and inactive calls. No cut-off for these calls is given here.

Columns and labels:
Mus musculus [1] = species on record: Mus musculus; experiment: Anticonvulsant effect in mouse electroshock-induced seizure test (MES).; type: functional
Mus musculus [2] = experiment: Compound was evaluated for its anticonvulsant effect in mouse electroshock-induced seizure test (MES), 8 hr after intraperitoneal administration; type: functional; conditions: ip
Mus musculus [3] = experiment: Compound was evaluated for its anticonvulsant effect in mouse electroshock-induced seizure test (MES), 8 hr after oral administration; type: functional
[4] = Compound was tested in vitro for its inhibitory activity against Xenopus laevis oocyte expressing 1A/2B heteromeric human NMDA (hNMDA) receptor
[5] = biological target: Glutamate [NMDA] receptor; experiment: Compound was tested in vitro for its inhibitory activity at 1 uM concentration against N-methyl-D-aspartate glutamate receptor by using [3H]CGP-39653 binding assay; type: protein-complex assay
[6] = Compound was tested in vitro for its inhibitory activity against Xenopus laevis oocyte expressing 1A/2A heteromeric human NMDA (hNMDA) receptor
[7] = tested on: GRIN1/GRIN2A vs GRIN1/GRIN2B (Homo sapiens); experiment: Ratio of human NMDA 1A/2A receptor to human NMDA 1A/2B receptor was determined in xenopus oocytes; 1/15; conditions: Oocyte
[8] = biological target: Glutamate NMDA receptor; GRIN1/GRIN2B (Homo sapiens, UniProt Q05586+Q13224); experiment: Inhibitory activity against Xenopus laevis oocyte expressing 1A/2B heteromeric human NMDA (hNMDA) receptor; type: protein-complex assay
[9] = biological target: Glutamate NMDA receptor; GRIN1/GRIN2A (Homo sapiens, UniProt Q05586+Q12879); experiment: Inhibitory activity against Xenopus laevis oocyte expressing 1A/2A heteromeric human NMDA (hNMDA) receptor; type: protein-complex assay
[10] = biological target: Glutamate [NMDA] receptor; experiment: In vitro inhibitory activity at 1 uM concentration against N-methyl-D-aspartate glutamate receptor, using [3H]CGP-39653 binding assay; type: protein-complex assay
[11] = tested on: GRIN1/GRIN2A vs GRIN1/GRIN2B (Homo sapiens); experiment: Ratio of human NMDA 1A/2A receptor to human NMDA 1A/2B receptor was determined in xenopus oocytes; 1/14; conditions: Oocyte
[12] = tested on: GRIN1/GRIN2A vs GRIN1/GRIN2B (Homo sapiens); experiment: Ratio of human NMDA 1A/2A receptor to human NMDA 1A/2B receptor was determined in xenopus oocytes; 1/10; conditions: Oocyte
[13] = tested on: GRIN1/GRIN2A vs GRIN1/GRIN2B (Homo sapiens); experiment: Ratio of human NMDA 1A/2A receptor to human NMDA 1A/2B receptor was determined in xenopus oocytes; 1/9; conditions: Oocyte
[14] = tested on: GRIN1/GRIN2A vs GRIN1/GRIN2B (Homo sapiens); experiment: Ratio of human NMDA 1A/2A receptor to human NMDA 1A/2B receptor was determined in xenopus oocytes; 1/40; conditions: Oocyte
[15] = tested on: GRIN1/GRIN2A vs GRIN1/GRIN2B (Homo sapiens); experiment: Ratio of human NMDA 1A/2A receptor to human NMDA 1A/2B receptor was determined in xenopus oocytes; 1/50; conditions: Oocyte
Mus musculus [16] = experiment: Compound at a dose 50 mg/kg was administered intraperitoneally into mouse and percent protection was determined after 1 hour; type: functional; conditions: route intraperitoneal
[17] = biological target: Glutamate [NMDA] receptor (Homo sapiens) (UniProt Q05586+Q12879+Q13224+O15399+O60391+Q14957+Q8TCU5); experiment: The compound was tested in vitro for percent inhibition at 1 uM concentration against N-methyl-D-aspartate glutamate receptor by using [3H]CGP-39653 binding assay; type: protein-complex assay
[18] = tested on: GRIN1/GRIN2A vs GRIN1/GRIN2B (Homo sapiens); experiment: Ratio of human NMDA 1A/2A receptor to human NMDA 1A/2B receptor was determined in xenopus oocytes; 1/13; conditions: Oocyte
[19] = tested on: GRIN1/GRIN2A vs GRIN1/GRIN2B (Homo sapiens); experiment: Ratio of human NMDA 1A/2A receptor to human NMDA 1A/2B receptor was determined in xenopus oocytes; 1/7; conditions: Oocyte
[20] = tested on: GRIN1/GRIN2A vs GRIN1/GRIN2B (Homo sapiens); experiment: Ratio of human NMDA 1A/2A receptor to human NMDA 1A/2B receptor was determined in xenopus oocytes; 1/11; conditions: Oocyte
[21] = tested on: GRIN1/GRIN2A vs GRIN1/GRIN2B (Homo sapiens); experiment: Ratio of human NMDA 1A/2A receptor to human NMDA 1A/2B receptor was determined in xenopus oocytes; 1/8; conditions: Oocyte
[22] = tested on: GRIN1/GRIN2A vs GRIN1/GRIN2B (Homo sapiens); experiment: Ratio of human NMDA 1A/2A receptor to human NMDA 1A/2B receptor was determined in xenopus oocytes; 1/26; conditions: Oocyte
[23] = tested on: GRIN1/GRIN2A vs GRIN1/GRIN2B (Homo sapiens); experiment: Ratio of human NMDA 1A/2A receptor to human NMDA 1A/2B receptor was determined in xenopus oocytes; >1/17; conditions: Oocyte
[24] = tested on: Glutamate [NMDA] receptor; experiment: The compound was tested in vitro for its inhibitory activity at 1 uM concentration against N-methyl-D-aspartate glutamate receptor by using [3H]CGP-39653 binding assay; Inactive; type: protein-complex assay
[25] = tested on: GRIN1/GRIN2A vs GRIN1/GRIN2B (Homo sapiens); experiment: Ratio of human NMDA 1A/2A receptor to human NMDA 1A/2B receptor was determined in xenopus oocytes; 1/1; conditions: Oocyte
[26] = tested on: GRIN1/GRIN2A vs GRIN1/GRIN2B (Homo sapiens); experiment: Ratio of human NMDA 1A/2A receptor to human NMDA 1A/2B receptor was determined in xenopus oocytes; 1/111; conditions: Oocyte

Glutamate NMDA receptor; GRIN1/GRIN2B, sequence (Q13224 whole entry, other chains not shown): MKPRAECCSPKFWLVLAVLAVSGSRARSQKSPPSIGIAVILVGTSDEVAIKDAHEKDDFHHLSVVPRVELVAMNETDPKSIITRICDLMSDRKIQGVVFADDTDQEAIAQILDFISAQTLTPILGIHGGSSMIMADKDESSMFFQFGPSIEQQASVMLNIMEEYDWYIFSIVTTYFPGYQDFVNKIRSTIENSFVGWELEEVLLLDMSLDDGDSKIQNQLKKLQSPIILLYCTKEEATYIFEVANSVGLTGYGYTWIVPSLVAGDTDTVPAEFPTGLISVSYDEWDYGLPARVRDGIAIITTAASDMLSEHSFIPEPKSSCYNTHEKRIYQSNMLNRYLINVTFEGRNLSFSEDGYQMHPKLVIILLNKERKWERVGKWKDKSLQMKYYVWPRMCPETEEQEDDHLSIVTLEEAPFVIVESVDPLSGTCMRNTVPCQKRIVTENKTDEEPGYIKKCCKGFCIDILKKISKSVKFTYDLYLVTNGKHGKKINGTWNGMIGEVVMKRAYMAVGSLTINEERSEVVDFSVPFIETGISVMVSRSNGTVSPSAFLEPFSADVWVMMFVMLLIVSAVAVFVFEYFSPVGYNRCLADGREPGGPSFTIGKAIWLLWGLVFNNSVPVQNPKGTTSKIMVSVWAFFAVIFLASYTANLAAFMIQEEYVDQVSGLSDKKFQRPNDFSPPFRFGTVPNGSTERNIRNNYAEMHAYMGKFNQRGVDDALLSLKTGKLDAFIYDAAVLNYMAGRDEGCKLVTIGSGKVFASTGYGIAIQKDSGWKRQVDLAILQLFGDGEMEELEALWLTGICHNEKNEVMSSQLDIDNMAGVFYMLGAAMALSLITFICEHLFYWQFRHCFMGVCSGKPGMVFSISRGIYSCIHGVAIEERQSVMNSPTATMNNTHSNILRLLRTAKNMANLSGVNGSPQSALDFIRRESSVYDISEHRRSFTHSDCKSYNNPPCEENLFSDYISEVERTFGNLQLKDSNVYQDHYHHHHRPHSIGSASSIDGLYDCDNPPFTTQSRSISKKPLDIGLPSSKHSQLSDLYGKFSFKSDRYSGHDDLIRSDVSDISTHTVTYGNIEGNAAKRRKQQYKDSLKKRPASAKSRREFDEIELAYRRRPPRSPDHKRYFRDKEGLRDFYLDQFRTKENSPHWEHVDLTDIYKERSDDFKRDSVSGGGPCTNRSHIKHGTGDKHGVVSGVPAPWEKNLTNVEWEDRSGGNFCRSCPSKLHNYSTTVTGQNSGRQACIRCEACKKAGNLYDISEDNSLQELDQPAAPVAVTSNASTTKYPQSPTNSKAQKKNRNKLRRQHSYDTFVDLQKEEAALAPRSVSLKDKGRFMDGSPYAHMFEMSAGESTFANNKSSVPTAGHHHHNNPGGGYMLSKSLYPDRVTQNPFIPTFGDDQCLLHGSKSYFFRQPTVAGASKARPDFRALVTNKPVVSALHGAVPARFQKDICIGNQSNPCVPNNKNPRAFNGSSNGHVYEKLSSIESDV
Glutamate NMDA receptor; GRIN1/GRIN2A, sequence (Q12879 whole entry, other chains not shown): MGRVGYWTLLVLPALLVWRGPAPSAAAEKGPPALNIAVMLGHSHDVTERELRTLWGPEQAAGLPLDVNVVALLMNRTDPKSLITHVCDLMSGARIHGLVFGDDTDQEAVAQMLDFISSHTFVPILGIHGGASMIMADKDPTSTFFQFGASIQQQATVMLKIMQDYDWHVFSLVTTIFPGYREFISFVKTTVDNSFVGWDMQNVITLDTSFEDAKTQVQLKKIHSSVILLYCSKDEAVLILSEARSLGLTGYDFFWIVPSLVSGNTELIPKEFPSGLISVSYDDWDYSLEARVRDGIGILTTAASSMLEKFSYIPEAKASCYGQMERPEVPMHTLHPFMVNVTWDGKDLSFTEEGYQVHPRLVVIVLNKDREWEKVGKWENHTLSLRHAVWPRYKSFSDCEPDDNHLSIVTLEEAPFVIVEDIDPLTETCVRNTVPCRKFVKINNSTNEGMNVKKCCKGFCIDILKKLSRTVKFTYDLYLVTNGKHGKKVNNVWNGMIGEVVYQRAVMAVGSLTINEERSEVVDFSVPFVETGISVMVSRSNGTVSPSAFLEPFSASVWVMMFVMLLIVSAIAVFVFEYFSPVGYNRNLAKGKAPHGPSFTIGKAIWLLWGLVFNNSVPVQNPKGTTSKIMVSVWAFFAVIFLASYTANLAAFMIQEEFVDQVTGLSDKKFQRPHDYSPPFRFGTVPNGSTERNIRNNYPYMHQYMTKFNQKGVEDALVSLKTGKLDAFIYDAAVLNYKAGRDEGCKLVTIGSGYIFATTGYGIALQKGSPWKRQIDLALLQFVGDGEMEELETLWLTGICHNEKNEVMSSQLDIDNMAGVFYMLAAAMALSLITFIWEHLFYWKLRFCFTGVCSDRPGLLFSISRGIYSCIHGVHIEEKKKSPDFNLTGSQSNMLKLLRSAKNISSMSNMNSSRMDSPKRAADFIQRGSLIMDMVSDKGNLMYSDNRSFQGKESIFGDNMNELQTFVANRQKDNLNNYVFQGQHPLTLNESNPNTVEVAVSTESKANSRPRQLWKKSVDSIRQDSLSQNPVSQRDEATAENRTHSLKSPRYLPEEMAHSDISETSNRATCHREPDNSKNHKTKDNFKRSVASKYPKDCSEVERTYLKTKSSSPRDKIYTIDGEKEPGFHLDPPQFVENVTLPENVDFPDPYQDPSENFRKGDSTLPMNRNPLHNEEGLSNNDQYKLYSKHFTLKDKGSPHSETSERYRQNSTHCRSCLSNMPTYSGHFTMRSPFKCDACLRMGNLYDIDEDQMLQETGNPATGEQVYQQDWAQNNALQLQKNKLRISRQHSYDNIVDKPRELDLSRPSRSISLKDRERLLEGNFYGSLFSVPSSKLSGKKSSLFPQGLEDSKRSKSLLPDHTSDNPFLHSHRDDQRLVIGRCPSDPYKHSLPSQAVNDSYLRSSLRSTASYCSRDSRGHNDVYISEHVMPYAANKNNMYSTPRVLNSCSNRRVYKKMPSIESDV

Row | SMILES | IC50 [8] [µM] | IC50 [9] [µM] | IC50 [10] [µM] | ED50 (Mus musculus [1]) [mg/kg] | other results
1 | O=P(O)(O)Cc1cccc2nc(O)c(O)nc12 |  |  |  | 0.7 | ED50 (Mus musculus [2]): 1.1 mg/kg; ED50 (Mus musculus [3]): 6.7 mg/kg; IC50 [4]: 0.03 µM; IC50 [5]: 0.0005 µM; IC50 [6]: 0.002 µM; Ratio [7]: Active
2 | O=P(O)(O)C(N[C@H]1CCc2ccccc21)c1cccc2nc(O)c(O)nc12 (some centres not stated) | 0.82 | 0.06 | 0.12 | 2 | Ratio [11]: Active
3 | CC(=O)OC(c1cc([N+](=O)[O-])cc2nc(O)c(O)nc12)P(=O)(O)O (configuration not stated) |  |  | 0.0081 | 5 | 
4 | CCCNC(c1cc([N+](=O)[O-])cc2nc(O)c(O)nc12)P(=O)(O)O.Cl (configuration not stated) | 0.93 | 0.09 | 0.065 | 2.8 | Ratio [12]: Active
5 | COC(c1cc([N+](=O)[O-])cc2nc(O)c(O)nc12)P(=O)(O)O (configuration not stated) |  |  | 0.017 |  | 
6 | Cl.NC(c1cc([N+](=O)[O-])cc2nc(O)c(O)nc12)P(=O)(O)O (configuration not stated) |  |  | 0.04 | 11.6 | 
7 | Br.O=[N+]([O-])c1cc(C(NCc2ccccc2)P(=O)(O)O)c2nc(O)c(O)nc2c1 (configuration not stated) |  |  | 0.0015 | 1.5 | 
8 | O=P(O)(O)C(NCCc1ccccc1)c1cccc2nc(O)c(O)nc12 (configuration not stated) | 1.6 | 0.04 | 0.0074 | 10 | Ratio [14]: Active
9 | C[C@H](NC(c1cccc2nc(O)c(O)nc12)P(=O)(O)O)c1ccccc1 (some centres not stated) | 0.9 | 0.018 | 0.0097 | 6.7 | Ratio [15]: Active
10 | C[C@H](NC(c1cccc2[nH]c(=O)c(=O)[nH]c12)P(=O)(O)O)c1ccc(Br)cc1 (some centres not stated) | 29.6 | 0.27 | 0.008 |  | 
11 | Cl.O=[N+]([O-])c1cc(C(NCC2CCCCC2)P(=O)(O)O)c2nc(O)c(O)nc2c1 (configuration not stated) |  |  | 0.003 | 4 | 
12 | O=P(O)(O)C(NC(c1ccccc1)c1ccccc1)c1cccc2nc(O)c(O)nc12 (configuration not stated) | 1.5 | 0.17 | 0.038 | 2.3 | Ratio [13]: Active
13 | CP(=O)(O)C(O)c1cc([N+](=O)[O-])cc2nc(O)c(O)nc12 (configuration not stated) |  |  |  |  | Protection (Mus musculus [16]): 0%; inhibition [17]: 42%
14 | COC(=O)NC(c1cc([N+](=O)[O-])cc2nc(O)c(O)nc12)P(=O)(O)O (configuration not stated) | 1.4 | 0.11 | 0.37 | 8.8 | Ratio [18]: Active
15 | Br.CP(=O)(O)C(NCc1ccccc1)c1cc([N+](=O)[O-])cc2nc(O)c(O)nc12 (configuration not stated) | 1.3 | 0.2 | 0.08 |  | Protection (Mus musculus [16]): 0%; Ratio [19]: Active
16 | C[C@@H](NC(c1cccc2nc(O)c(O)nc12)P(=O)(O)O)c1ccccc1 (some centres not stated) | 0.57 | 0.05 | 0.031 |  | Protection (Mus musculus [16]): 60%; Ratio [20]: Active
17 | O=[N+]([O-])c1cc(C(O)P(=O)(O)O)c2nc(O)c(O)nc2c1 (configuration not stated) |  |  | 0.0012 | 1.2 | 
18 | Br.O=[N+]([O-])c1cc(C(NCc2ccccc2)P(=O)(O)Cc2ccccc2)c2nc(O)c(O)nc2c1 (configuration not stated) | 1.3 | 0.05 | 0.06 |  | Protection (Mus musculus [16]): 20%; Ratio [22]: Active
19 | C[C@H](NC(c1cccc2nc(O)c(O)nc12)P(=O)(O)O)c1cccc2ccccc12 (some centres not stated) | > 30 | 1.7 | 0.027 | 15 | Ratio [23]: Active
20 | O=P(O)(O)Cc1ccc2nc(O)c(O)nc2c1 |  |  |  |  | IC50 [24]: Not Active
21 | Br.O=[N+]([O-])c1cc(C(NCc2ccco2)P(=O)(O)O)c2nc(O)c(O)nc2c1 (configuration not stated) |  |  | 0.0041 | 3.7 | 
22 | C[C@H](NC(c1cccc2nc(O)c(O)nc12)P(=O)(O)O)c1ccc(Br)cc1 (some centres not stated) |  |  |  | 23 | Ratio [26]: Active

The next lines start with results.

Row | IC50 [8] [µM] | IC50 [9] [µM] | IC50 [10] [µM] | SMILES | ED50 (Mus musculus [1]) [mg/kg] | other results
23 | 24 | 2.8 | 0.86 | CC(=O)N(C)C(c1cccc2nc(O)c(O)nc12)P(=O)(O)O (configuration not stated) |  | Ratio [13]: Active
24 |  |  | 0.25 | O=C(O)Cc1cccc2nc(O)c(O)nc12 |  | 
25 |  |  | 0.0015 | O=P(O)(O)Cc1cc(Br)cc2nc(O)c(O)nc12 | 2.5 | 
26 | 30 | 0.6 | 0.16 | CN(Cc1ccccc1)C(c1cccc2nc(O)c(O)nc12)P(=O)(O)O (configuration not stated) |  | Protection (Mus musculus [16]): 40%; Ratio [15]: Active
27 | 0.0018 | 0.0002 | 0.0008 | O=P(O)(O)Cc1cc(-c2ccc(Cl)cc2)cc2nc(O)c(O)nc12 | 0.7 | Ratio [13]: Active
28 |  |  | 0.001 | O=P(O)(O)Cc1cc(F)cc2nc(O)c(O)nc12 |  | 
29 |  |  | 0.0017 | O=P(O)(O)Cc1cc(Cl)cc2nc(O)c(O)nc12 | 2.4 | 
30 | 0.034 | 0.0042 | 0.002 | Br.O=P(O)(O)C(NCc1ccccc1)c1cccc2nc(O)c(O)nc12 (configuration not stated) | 2 | Ratio [21]: Active
31 | 6.2 | 0.79 | 1.1 | CNC(c1cccc2nc(O)c(O)nc12)P(=O)(O)O (configuration not stated) |  | Ratio [21]: Active
32 | 0.0007 | 0.0011 | 0.0015 | O=P(O)(O)C(O)c1cccc2nc(O)c(O)nc12 (configuration not stated) | 0.5 | Ratio [25]: Active
33 | 6.2 | 0.49 | 0.13 | O=P(O)(O)C(Nc1ccccc1)c1cccc2nc(O)c(O)nc12 (configuration not stated) |  | Protection (Mus musculus [16]): 0%; Ratio [21]: Active
